Measurements published in patent EP1586565A1, “Substituted polycyclic aryl and heteroaryl pyrazinones useful for selective inhibition of the coagulation cascade” (Pharmacia Corporation, priority 1999, dated 2000).

Key:
TF-VIIa = target: T1, TF-VIIa (Homo sapiens, UniProt P08709); test: TF-VIIa Assay; assay type: biochemical; conditions: % inhibition at 30 µM (cells with % or %@30, bare 0)
T1 construct: An extrinsic pathway is initiated by the conversion of coagulation factor VII to VIIa by Xa; purchased American Diagnostica, Greenwich CT; Soluble TF was made in house in E. coli
T1 sequence (P08709 213-466 limits assumed): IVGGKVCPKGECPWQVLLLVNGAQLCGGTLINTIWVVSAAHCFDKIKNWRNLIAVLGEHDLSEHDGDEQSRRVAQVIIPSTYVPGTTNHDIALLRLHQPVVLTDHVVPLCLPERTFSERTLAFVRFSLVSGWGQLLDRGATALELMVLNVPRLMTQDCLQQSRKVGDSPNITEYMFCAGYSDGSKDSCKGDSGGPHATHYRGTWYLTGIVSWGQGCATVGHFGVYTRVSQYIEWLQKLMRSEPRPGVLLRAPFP
T1 sequence (P08709 61-212 limits assumed): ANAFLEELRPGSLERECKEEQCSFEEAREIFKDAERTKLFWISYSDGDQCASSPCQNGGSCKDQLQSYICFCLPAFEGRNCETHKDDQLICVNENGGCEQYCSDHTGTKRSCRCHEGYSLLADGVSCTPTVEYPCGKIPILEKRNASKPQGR
T1 sequence (P13726 33-251 partner limits assumed): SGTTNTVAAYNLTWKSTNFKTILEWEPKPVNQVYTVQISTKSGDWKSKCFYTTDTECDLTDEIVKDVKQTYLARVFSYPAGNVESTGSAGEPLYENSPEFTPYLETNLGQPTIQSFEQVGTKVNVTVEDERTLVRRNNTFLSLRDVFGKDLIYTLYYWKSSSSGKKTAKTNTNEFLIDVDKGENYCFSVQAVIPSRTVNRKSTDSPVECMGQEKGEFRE

Human factor Xa = target: T2, Human factor Xa (Homo sapiens, UniProt P00742); test: Xa Assay; assay type: biochemical; conditions: for IC50 or % Inhibition Factor Xa (30 µM): % inhibition at 30 µM (cells with % or %@30, bare 0)
T2 construct: leads from XII to XIIa to XIa to IXa and to the conversion of X to Xa; purchased Enzyme Research Laboratories, South Bend IN
T2 sequence (P00742 235-488 limits assumed): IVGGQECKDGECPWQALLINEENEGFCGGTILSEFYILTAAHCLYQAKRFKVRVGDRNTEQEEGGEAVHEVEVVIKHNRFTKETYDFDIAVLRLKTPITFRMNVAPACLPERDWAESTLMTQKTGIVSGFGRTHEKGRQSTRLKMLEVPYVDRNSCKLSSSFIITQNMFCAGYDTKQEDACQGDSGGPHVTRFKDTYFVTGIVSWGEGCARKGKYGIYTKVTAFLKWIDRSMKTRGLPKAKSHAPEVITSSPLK
T2 sequence (P00742 41-179 limits assumed): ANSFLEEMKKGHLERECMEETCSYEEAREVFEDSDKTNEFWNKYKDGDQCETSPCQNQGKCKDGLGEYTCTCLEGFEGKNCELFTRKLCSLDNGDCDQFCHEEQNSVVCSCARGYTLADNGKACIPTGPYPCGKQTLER

Row | Structure (SMILES) | IC50 or % Inhibition Factor Xa (30 µM) (Human factor Xa) | % Inhibition Factor Xa (100 µM) (Human factor Xa) | other results
1 | N=C(N)c1ccc(CNC(=O)Cn2c(-c3ccccc3)c(Cl)nc(NC(Cc3ccccc3)c3ccccc3)c2=O)cc1 (stereo not shown) [1507-07] |  |  | IC50 or % Inhibition TF-VIIa (30 µM) (TF-VIIa): 25%
2 | N=C(N)c1ccc(CNC(=O)Cn2c(-c3ccccc3)c(Cl)nc(NCCc3ccccn3)c2=O)cc1 [1512-47] | 13% |  | 
3 | N=C(N)c1ccc(CNC(=O)Cn2c(-c3ccsc3)c(Cl)nc(NCc3ccccc3)c2=O)cc1 [1517-01] | 0% |  | 
4 | C[C@@H](C(=O)NCc1ccc(C(=N)N)cc1)n1c(-c2ccccc2)c(Cl)nc(NCc2ccccc2)c1=O [1517-03] | 0% |  | 
5 | CSCC(C(=O)NCc1ccc(C(=N)N)cc1)n1c(-c2ccccc2)c(Cl)nc(NCc2ccccc2)c1=O (stereo not shown) [1517-04] | 0% |  | 
6 | C[C@H](C(=O)NCc1ccc(C(=N)N)cc1)n1c(-c2ccccc2)c(Cl)nc(NCc2ccccc2)c1=O [1517-05] | 0% |  | 
7 | N=C(N)c1ccc(CNC(=O)Cn2c(-c3c(Cl)cccc3Cl)c(Cl)nc(NCc3ccccc3)c2=O)cc1 [1517-06] | 0% |  | 
8 | N=C(N)c1ccc(CNC(=O)Cn2c(-c3ccsc3)c(Cl)nc(NC3CCC3)c2=O)cc1 [1517-07] | 0% |  | 
9 | C[C@@H](C(=O)NCc1ccc(C(=N)N)cc1)n1c(-c2ccccc2)c(Cl)nc(NC2CCC2)c1=O [1517-09] | 0% |  | 
10 | CSCC(C(=O)NCc1ccc(C(=N)N)cc1)n1c(-c2ccccc2)c(Cl)nc(NC2CCC2)c1=O (stereo not shown) [1517-10] | 0% |  | 
11 | C[C@H](C(=O)NCc1ccc(C(=N)N)cc1)n1c(-c2ccccc2)c(Cl)nc(NC2CCC2)c1=O [1517-11] | 0% |  | 
12 | N=C(N)c1ccc(CNC(=O)Cn2c(-c3c(Cl)cccc3Cl)c(Cl)nc(NC3CCC3)c2=O)cc1 [1517-12] | 0% |  | 
13 | N=C(N)c1ccc(CNC(=O)Cn2c(-c3ccsc3)c(Cl)nc(NCCc3ccccc3)c2=O)cc1 [1517-13] | 0% |  | 
14 | C[C@@H](C(=O)NCc1ccc(C(=N)N)cc1)n1c(-c2ccccc2)c(Cl)nc(NCCc2ccccc2)c1=O [1517-15] | 0% |  | 
15 | CSCC(C(=O)NCc1ccc(C(=N)N)cc1)n1c(-c2ccccc2)c(Cl)nc(NCCc2ccccc2)c1=O (stereo not shown) [1517-16] | 0% |  | 
16 | C[C@H](C(=O)NCc1ccc(C(=N)N)cc1)n1c(-c2ccccc2)c(Cl)nc(NCCc2ccccc2)c1=O [1517-17] | 0% |  | 
17 | N=C(N)c1ccc(CNC(=O)Cn2c(-c3c(Cl)cccc3Cl)c(Cl)nc(NCCc3ccccc3)c2=O)cc1 [1517-18] | 0% |  | 
18 | N=C(N)c1ccc(CNC(=O)Cn2c(-c3ccsc3)c(Cl)nc(NCCc3cccc(Cl)c3)c2=O)cc1 [1517-19] | 0% |  | 
19 | C[C@H](C(=O)NCc1ccc(C(=N)N)cc1)n1c(-c2ccccc2)c(Cl)nc(NCCc2cccc(Cl)c2)c1=O [1517-23] | 0% |  | 
20 | N=C(N)c1ccc(CNC(=O)Cn2c(-c3c(Cl)cccc3Cl)c(Cl)nc(NCCc3cccc(Cl)c3)c2=O)cc1 [1517-24] | 0% |  | 
21 | N=C(N)c1ccc(CNC(=O)Cn2c(-c3ccccc3)c(Cl)nc(NC3CCCCC3)c2=O)cc1 [1517-25] | 0% |  | 
22 | CCCC(CCC)Nc1nc(Cl)c(-c2ccccc2)n(CC(=O)NCc2ccc(C(=N)N)cc2)c1=O [1517-26] | 0% |  | 

Row | Structure (SMILES) | IC50 or % Inhibition Factor Xa (30 µM) (Human factor Xa) | % Inhibition Factor Xa (100 µM) (Human factor Xa) | other results
23 | CC(C)N(C)c1nc(Cl)c(-c2ccccc2)n(CC(=O)NCc2ccc(C(=N)N)cc2)c1=O [1517-31] | 0% |  | 
24 | CCCNc1nc(Cl)c(-c2ccccc2)n(CC(=O)NCc2ccc(C(=N)N)cc2)c1=O [1517-33] | 0% |  | 
25 | C[Si](C)(C)CNc1nc(Cl)c(-c2ccccc2)n(CC(=O)NCc2ccc(C(=N)N)cc2)c1=O [1517-36] | 0% |  | 
26 | CC(C)CCNc1nc(Cl)c(-c2ccccc2)n(CC(=O)NCc2ccc(C(=N)N)cc2)c1=O [1517-40] | 0% |  | 
27 | CC(C)(C)CCNc1nc(Cl)c(-c2ccccc2)n(CC(=O)NCc2ccc(C(=N)N)cc2)c1=O [1517-41] | 0% |  | 
28 | CCCCCNc1nc(Cl)c(-c2ccccc2)n(CC(=O)NCc2ccc(C(=N)N)cc2)c1=O [1517-48] | 0% |  | 
29 | N=C(N)c1ccc(CNC(=O)Cn2c(Cc3ccccc3)c(Cl)nc(NCCc3ccccc3)c2=O)cc1 [Example 20] | 6%@30 |  | 
30 | N=C(N)NC/C=C\CNC(=O)Cn1c(-c2ccccc2)cnc(NCCc2ccccc2)c1=O [Example 37] | 0% |  | 
31 | Nc1n[nH]c2ccc(CNC(=O)Cn3c(-c4ccccc4)cnc(NCCc4ccccc4)c3=O)cc12 [Example 38] | 22% |  | 
32 | Nc1n[nH]c2cc(CNC(=O)Cn3c(-c4ccccc4)cnc(NCCc4ccccc4)c3=O)ccc12 [Example 39] | 0% |  | 
33 | N=C(N)c1ccc(CNC(=O)Cn2c(-c3cccc(N)c3)c(Cl)nc(NC3CCC3)c2=O)cc1F [Example 40] | 0% |  | 
34 | CC(C)Nc1nc(Cl)c(-c2cccc(N)c2)n(CC(=O)NCc2ccc(C(=N)N)c(F)c2)c1=O [Example 42] | 0% |  | 
35 | CC(C)Nc1ncc(-c2cccc(N)c2)n(CC(=O)NCc2ccc(C(=N)N)c(F)c2)c1=O [Example 43] | 0% |  | 
36 | CC(C)Nc1nc(Cl)c(-c2cccc(N)c2)n(CC(=O)NCCc2ccc(C(=N)N)cc2)c1=O [Example 62] | 10% |  | 
37 | COC(=O)c1cccc(-c2c(Cl)nc(NC(C)C)c(=O)n2CC(=O)NCc2ccc(C(=N)N)cc2)c1 [Example 64] | 19% |  | 
38 | CC(C)Nc1nc(Cl)c(-c2cccc(C(=O)O)c2)n(CC(=O)NCc2ccc(C(=N)N)cc2)c1=O [Example 65] | 12% |  | 
39 | N=C(N)c1ccc(CNC(=O)Cn2c(-c3ccccc3O)c(Cl)nc(NC3CCC3)c2=O)cc1 [Example 66] | 0% |  | 
40 | O=C(Cn1c(-c2ccc(Cl)cc2)c(Cl)nc(NCCc2ccc(Cl)cc2)c1=O)NCCc1ccncc1 [Example E-0020] |  | 1% | 
41 | O=C(Cn1c(-c2ccc(Cl)cc2)c(Cl)nc(NCc2ccccc2)c1=O)NCCc1ccncc1 [Example E-0025] |  | 0% | 
42 | O=C(Cn1c(-c2ccc(Cl)cc2)c(Cl)nc(NCCc2cccc(Cl)c2)c1=O)NCCc1ccncc1 [Example E-0027] |  | 0% | 
43 | O=C(Cn1c(-c2ccc(Cl)cc2)c(Cl)nc(NCCc2ccc(Cl)cc2)c1=O)NCCc1ccncc1 [Example E-0028] |  | 0% | 
44 | O=C(Cn1c(-c2ccc(Cl)cc2)c(Cl)nc(NCCc2cccnc2)c1=O)NCCc1ccncc1 [Example E-0029] |  | 0% | 

Row | Structure (SMILES) | IC50 or % Inhibition Factor Xa (30 µM) (Human factor Xa) | % Inhibition Factor Xa (100 µM) (Human factor Xa) | other results
45 | O=C(Cn1c(-c2ccc(Cl)cc2)c(Cl)nc(NCCN2CCOCC2)c1=O)NCCc1ccncc1 [Example E-0031] |  | 0% | 
46 | O=C(Cn1c(-c2ccc(Cl)cc2)c(Cl)nc(NCc2ccncc2)c1=O)NCCc1ccncc1 [Example E-0032] |  | 0% | 
47 | COc1ccc(-c2c(Cl)nc(NCCc3cccc(Cl)c3)c(=O)n2CC(=O)NCCc2ccncc2)cc1 [Example E-0035] |  | 0% | 
48 | O=C(Cn1c(-c2ccc(-c3ccccc3)cc2)c(Cl)nc(NCCc2ccccc2)c1=O)NCCc1ccncc1 [Example E-0050] |  | 0% | 
49 | O=C(Cn1c(-c2cccc(Cl)c2)c(Cl)nc(NCCc2cccc(Cl)c2)c1=O)NCCc1cccnc1 [Example E-0080] |  | 4% | 
50 | O=C(Cn1c(-c2cccc(Cl)c2)c(Cl)nc(NCCc2ccc(Cl)cc2)c1=O)NCCc1cccnc1 [Example E-0083] |  | 3% | 
51 | O=C(Cn1c(-c2cccc(Cl)c2)c(Cl)nc(NCc2ccccc2)c1=O)NCCc1ccncc1 [Example E-0085] |  | 0% | 
52 | O=C(Cn1c(-c2cccc(Cl)c2)c(Cl)nc(NCc2ccccc2)c1=O)NCCc1cccnc1 [Example E-0086] |  | 4% | 
53 | O=C(Cn1c(-c2cccc(Cl)c2)c(Cl)nc(NCCc2ccccc2)c1=O)NCCc1cccnc1 [Example E-0089] |  | 4% | 
54 | O=C(Cn1c(-c2cccc(Cl)c2)c(Cl)nc(NCCc2cccc(Cl)c2)c1=O)NCCc1cccnc1 [Example E-0092] |  | 3% | 
55 | O=C(Cn1c(-c2cccc(Cl)c2)c(Cl)nc(NCCc2ccc(Cl)cc2)c1=O)NCCc1cccnc1 [Example E-0095] |  | 4% | 
56 | COc1ccc(-c2c(Cl)nc(NCCc3ccccc3)c(=O)n2CC(=O)NCCc2ccncc2)cc1 [Example E-0100] |  | 6% | 
57 | COc1ccc(-c2c(Cl)nc(NCCc3cccc(Cl)c3)c(=O)n2CC(=O)NCCc2ccncc2)cc1 [Example E-0103] |  | 3% | 
58 | COc1ccc(-c2c(Cl)nc(NCCc3ccc(Cl)cc3)c(=O)n2CC(=O)NCCc2ccncc2)cc1 [Example E-0106] |  | 3% | 
59 | O=C(Cn1c(-c2ccc(-c3ccccc3)cc2)c(Cl)nc(NCc2ccccc2)c1=O)NCCc1ccncc1 [Example E-0109] |  | 3% | 
60 | O=C(Cn1c(-c2ccc(-c3ccccc3)cc2)c(Cl)nc(NCCc2ccc(Cl)cc2)c1=O)NCCc1ccncc1 [Example E-0118] |  | 3% | 
61 | CC(C)Nc1nc(Cl)c(-c2cc(N)ccc2F)n(CC(=O)NCc2ccc(C(=N)N)cc2F)c1=O [compound 73] | 0% |  | 
62 | CC(C)Nc1nc(Cl)c(-c2ccc(Cl)nc2)n(CC(=O)NCc2ccc(C(=N)N)cc2F)c1=O [compound 74] | 13% |  | 
63 | CC(C)Nc1nc(Cl)c(-c2cccnc2)n(CC(=O)NCc2ccc(C(=N)N)cc2)c1=O [compound 75] | 9% |  | 
64 | CSc1ccc(N)cc1-c1c(Cl)nc(NC(C)C)c(=O)n1CC(=O)NCc1ccc(C(=N)N)cc1 [compound 76] | 0% |  | 
